# Test results taken from PMC5011961, “In vitro antimicrobial activities of animal-used quinoxaline 1,4-di-N-oxides against mycobacteria, mycoplasma and fungi” (BMC Veterinary Research, 2016).
# Like-named read-outs stand apart in the source and are kept apart here.
# Experiments:
# [1] = system: Trichophyton rubrum; assay: Antifungal assay, macrobroth 2-fold serial dilution MIC
# [2] = system: Candida tropicalis; assay: as above
# [3] = system: Candida albicans; assay: as above
# [4] = system: Aspergillus fumigatus; assay: as above
# [5] = system: Microsporum canis; assay: as above
# [6] = system: Candida parapsilosis; assay: as above; conditions: Lodderomyces parapsilosis
# [7] = system: Epidermophyton floccosum; assay: as above
# [8] = system: Cryptococcus neoformans; assay: as above
# [9] = system: DF-1 cells; assay: Cytotoxicity assay (MTT); conditions: for TC50: DF-1, 72 h, MTT, mean ± SD, n = 4; for MNTC: DF-1, maximum non-cytotoxic concentration (90 % cell viability)
# [10] = system: M. gallisepticum; assay: Antimycoplasma assay, MIC in microtiter plates; conditions: Mycoplasmoides gallisepticum
# Description: (§1) Briefly, 96-well microtiter Sensititre plates containing stabilized and freeze-dried antimicrobials were used. Three wells on each plate were set as antimicrobial free growth control. Freshly thawed mycoplasma isolates with known titers were diluted in liquid medium until the number of organisms reached 10^4 color changing units/mL. 50 μL of the diluted culture was transferred into each well of the Sensititre plates. […] The plates were sealed using an adhesive foil and incubated at 36 °C for 14 days. The growth of M. hyopneumoniae was observed daily when the color of the medium changed from red to yellow (phenol red indicator), and the initial and final MICs were recorded.
# [11] = system: M. tuberculosis H37Ra ATCC 25177; assay: Microdilution alamar blue assay (MABA)
# Description: Briefly, each of the above Mycobacterium strains was cultured at 37 °C in Middlebrook 7H9 broth supplemented with 0.2 % glycerol and 10 % Oleic Acid-Albumin-Dextrose-Catalase (Sigma, St Louis, MO, USA) until logarithmic growth was reached. About 6 × 10^6 CFU/mL inoculum of Mycobacterium strain was then added to the two fold serially diluted drug samples. The final concentration of DMSO in all assays was 2.5 % or less and this dilution also served as solvent control. The samples were assayed in triplicate. All tests were carried out in sterile flat bottom 96-well microplates. Each microplate was incubated for 5 days at 37 °C in a sealed plastic CO2-permeable bag. After 7 days of incubation, 32 μL of a mixture of freshly prepared Alamar Blue solution and 20 % sterile Tween-80 at 1:1 (v/v) were added to the growth-control well. The microplates were incubated at 37 °C for 24 h. […] A well-defined pink color was interpreted as positive bacterial growth, whereas a blue color indicated an absence of growth.
# [12] = system: M. tuberculosis H37Rv ATCC 27294; assay: Microdilution alamar blue assay (MABA); type: cell-based, Mycobacterium tuberculosis; conditions: Mycobacterium tuberculosis, read-out: MIC
# [13] = system: M. hyopneumoniae; assay: Antimycoplasma assay, MIC in microtiter plates; conditions: Mesomycoplasma hyopneumoniae
# Description: as §1
# [14] = system: PPV; assay: Antiviral assay (CPE/MTT; adsorption inhibition, infection inhibition, virucidal); type: cell-based, porcine parvovirus; set-up: key to IC50: “--” represent not detected owing to the low inhibition ratio; conditions: PPV, mean±SD of four experiments
# [15] = system: M. tuberculosis complex; assay: Combination susceptibility assay (checkerboard method), overall statements; type: cell-based; conditions: combined with rifampicin
# [16] = system: Mycoplasma gallisepticum; assay: Combination susceptibility assay (checkerboard method); type: cell-based; conditions: combined with tetracyclines (tetracycline and doxycycline), M. gallisepticum
# [17] = system: PK-15 cells; assay: Cytotoxicity assay (MTT); conditions: for TC50: PK-15, 72 h, MTT, mean ± SD, n = 4; for MNTC: PK-15, maximum non-cytotoxic concentration (90 % cell viability)
# [18] = system: M. bovis ATCC 19210; assay: microbe, parasite or virus in culture; type: cell-based, Mycobacterium bovis; conditions: Mycobacterium tuberculosis variant bovis, ATCC19210
# [19] = system: Marc-145 cells; assay: Cytotoxicity assay (MTT); conditions: for TC50: Marc-145, 72 h, MTT, mean ± SD, n = 4; for MNTC: Marc-145, maximum non-cytotoxic concentration (90 % cell viability)
# [20] = system: PRRSV; assay: Antiviral assay (CPE/MTT; adsorption inhibition, infection inhibition, virucidal); type: cell-based, porcine reproductive and respiratory syndrome virus; set-up: key to IC50: “--”represent not detected owing to the low inhibition ratio; conditions: PRRSV, mean±SD of four experiments
# [21] = system: IBDV; assay: as above; type: cell-based, infectious bursal disease virus; set-up: key to IC50: “--” represent not detected owing to the low inhibition ratio; conditions: IBDV, mean±SD of four experiments
# [22] = system: M. tuberculosis H37Rv ATCC 27294; set-up: method as in PMID 14561478; conditions: previous report; cited from earlier work
# [23] = system: mycoplasma; assay: Antimycoplasma assay, overall statements; type: cell-based; conditions: range over Mycoplasma gallisepticum and Mycoplasma hyopneumoniae strains
# [24] = Candida tropicalis, C. tropicalis 2.2735, deep fungi
# [25] = Candida tropicalis, C. tropicalis 7349, deep fungi
# [26] = A. fumigatus 3.5301, deep fungi
# [27] = A. fumigatus 3.5352, deep fungi
# [28] = M. gallisepticum BG44T (10^4ccu/mL)
# [29] = M. gallisepticum MG-HS (10^6ccu/mL)
# [30] = M. gallisepticum PG31 (10^8 ccu/mL)
Compound,MIC [1] [µg/mL],MIC ([1]; ATCC4438) [µg/mL],"MIC [2, 24] [µg/mL]","MIC ([3]; C. albicans 2.4122, deep fungi) [µg/mL]","MIC ([3]; C. albicans 90028, deep fungi) [µg/mL]","MIC [4, 26] [µg/mL]","MIC [4, 27] [µg/mL]",MIC [5] [µg/mL],MIC ([5]; CBS113480) [µg/mL],MIC [6] [µg/mL],MIC [7] [µg/mL],MIC ([7]; CBS566094) [µg/mL],MIC [8] [µg/mL],"MIC [10, 28] [µg/mL]","MIC [10, 29] [µg/mL]","MIC [10, 30] [µg/mL]",MIC [11] [µg/mL],MIC [12] [µg/mL],MIC [13] [µg/mL],MIC [18] [µg/mL],other results
"C[C@@H]1[C@H](O)[C@@H](C)/C=C/C=C/C=C/C=C/C=C/C=C/C=C/[C@H](O[C@@H]2O[C@H](C)[C@@H](O)[C@H](N)[C@@H]2O)C[C@@H]2O[C@](O)(C[C@@H](O)C[C@@H](O)[C@H](O)CC[C@@H](O)C[C@@H](O)CC(=O)O[C@H]1C)C[C@H](O)[C@H]2C(=O)O [AMB, amphotericin B]",1,1,2,2,1,0.5,0.5,1,0.5,1,0.5,0.5,0.5,,,,,,,,"MIC [2, 25]: 2 µg/mL"
"N#CCC(=O)N/N=C/c1c[n+]([O-])c2ccccc2[n+]1[O-] [CYA, cyadox]",32,32,32,32,64,64,32,32,16,32,32,32,16,32,16,16,64,4,16,8,"MIC [2, 25]: 32 µg/mL; TC50 [9]: 17.26 ± 1.27 µg/mL; MNTC [9]: 1.0 µg/mL; IC50 ([14]; Inactivation): --; IC50 ([14]; Prevention): --; IC50 ([14]; Treatment): --; FIC [15]: 0.75; Combined effect [16]: additive (0.5 to 1, additive); TC50 [17]: 15.31 ± 1.23 µg/mL; MNTC [17]: 1.2 µg/mL; TC50 [19]: 16.92 ± 1.28 µg/mL; MNTC [19]: 1.56 µg/mL; IC50 ([20]; Inactivation): --; IC50 ([20]; Prevention): --; IC50 ([20]; Treatment): --; IC50 ([21]; Inactivation): --; IC50 ([21]; Prevention): --; IC50 ([21]; Treatment): --"
"CCN1CCN(c2cc3c(cc2F)c(=O)c(C(=O)O)cn3C2CC2)CC1 [Enrofloxacin, enrofloxacin]",,,,,,,,,,,,,,0.013,0.05,0.025,,,0.025,,
"NNC(=O)c1ccncc1 [Isoniazid, isoniazid]",,,,,,,,,,,,,,,,,16,0.025,,0.025,
"CC(=O)N1CCN(c2ccc(OCC3COC(Cn4ccnc4)(c4ccc(Cl)cc4Cl)O3)cc2)CC1 (centres unmarked) [KCZ, ketoconazole]",0.5,0.5,,0.5,0.25,0.25,0.5,0.5,0.25,0.125,0.25,0.25,0.25,,,,,,,,"MIC ([2]; C. tropicalis 2.2735, deep fungi): 0.5 µg/mL; MIC ([2]; Candida tropicalis): 0.5 µg/mL"
"CC(=O)c1c(C)[n+]([O-])c2ccccc2[n+]1[O-] [MEQ, mequindox]",> 64,> 64,64,32,64,> 64,> 64,> 64,> 64,64,> 64,64,32,16,32,16,32,4,32,8,"MIC [2, 25]: > 64 µg/mL; TC50 [9]: 40.01 ± 1.27 µg/mL; MNTC [9]: 2.0 µg/mL; IC50 ([14]; Inactivation): --; IC50 ([14]; Prevention): --; IC50 ([14]; Treatment): --; FIC [15]: 0.75; Combined effect [16]: additive (0.5 to 1, additive); TC50 [17]: 17.86 ± 1.28 µg/mL; MNTC [17]: 0.5 µg/mL; TC50 [19]: 41.28 ± 1.28 µg/mL; MNTC [19]: 1.0 µg/mL; MIC [22]: 3.13 µg/mL; IC50 ([20]; Inactivation): --; IC50 ([20]; Prevention): --; IC50 ([20]; Treatment): --; IC50 ([21]; Inactivation): --; IC50 ([21]; Prevention): --; IC50 ([21]; Treatment): --"
"Cc1c(C(=O)/C=C/c2ccccc2)[n+]([O-])c2ccccc2[n+]1[O-] [QCT, quinocetone]",32,32,> 64,> 64,> 64,64,64,16,8,64,32,32,64,8,16,16,64,4,16,4,"MIC [2, 25]: > 64 µg/mL; TC50 [9]: 9.89 ± 1.08 µg/mL; MNTC [9]: 0.25 µg/mL; IC50 ([14]; Inactivation): --; IC50 ([14]; Prevention): --; IC50 ([14]; Treatment): --; FIC [15]: 0.75; Combined effect [16]: additive (0.5 to 1, additive); TC50 [17]: 2.38 ± 0.27 µg/mL; MNTC [17]: 0.2 µg/mL; MIC [23]: 8 to 16 µg/mL; TC50 [19]: 8.90 ± 1.05 µg/mL; MNTC [19]: 0.39 µg/mL; IC50 ([20]; Inactivation): --; IC50 ([20]; Prevention): --; IC50 ([20]; Treatment): --; IC50 ([21]; Inactivation): --; IC50 ([21]; Prevention): --; IC50 ([21]; Treatment): --"
"CO[C@H]1/C=C/O[C@@]2(C)Oc3c(C)c(O)c4c(O)c(c(/C=N/N5CCN(C)CC5)c(O)c4c3C2=O)NC(=O)/C(C)=C\C=C\[C@H](C)[C@H](O)[C@@H](C)[C@@H](O)[C@@H](C)[C@H](OC(C)=O)[C@@H]1C [Rifampicin, rifampicin]",,,,,,,,,,,,,,,,,1.6,0.05,,0.025,
"CC[C@H]1OC(=O)C[C@@H](O)[C@H](C)[C@@H](O[C@@H]2O[C@H](C)[C@@H](O[C@H]3C[C@@](C)(O)[C@@H](O)[C@H](C)O3)[C@H](N(C)C)[C@H]2O)[C@@H](CC=O)C[C@@H](C)C(=O)/C=C/C(C)=C/[C@@H]1CO[C@@H]1O[C@H](C)[C@@H](O)[C@@H](OC)[C@H]1OC [Tylosin, tylosin]",,,,,,,,,,,,,,0.05,0.025,0.025,,,0.05,,
